Counter-ions that a name gives are not always drawn.
target: T1, Human CCR3 (Homo sapiens, UniProt P51677); test: Calcium mobilization assay, eotaxin-stimulated; type: cell-based; conditions: human CCR3-transformed K562 cells, 10 nM eotaxin; compounds of about 40 to 90% purity; read-out: Activity grade Ca2+ (IC50 class)
T1 construct: The cloned CCR3 cDNA was constructed with pcDNA3 vector and transfected into a IC562 cell line; expressed in transfected cells
T1 sequence (P51677 1-355): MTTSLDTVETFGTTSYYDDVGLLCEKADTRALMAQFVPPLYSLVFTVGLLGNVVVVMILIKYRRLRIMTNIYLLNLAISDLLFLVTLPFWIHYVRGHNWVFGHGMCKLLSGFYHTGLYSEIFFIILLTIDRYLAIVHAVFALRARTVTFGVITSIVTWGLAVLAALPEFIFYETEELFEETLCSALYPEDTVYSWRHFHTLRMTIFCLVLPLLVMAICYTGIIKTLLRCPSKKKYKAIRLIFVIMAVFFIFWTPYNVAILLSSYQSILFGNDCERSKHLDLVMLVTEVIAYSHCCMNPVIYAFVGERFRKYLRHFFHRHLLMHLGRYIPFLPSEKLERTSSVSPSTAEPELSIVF
Outline: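 K562 cells transfected with human CCR3, pretreated 20–24 h with 5 mM sodium butyrate, loaded with Fluo-3AM. Compound added 10 min before stimulation with 10 nM (final) eotaxin; cytoplasmic calcium read over 60 s by FDSS, IC50 from inhibition curve.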

| IC50 [nM] | SMILES |
| --- | --- |
| < 1000 | Cl.O=[N+]([O-])c1ccc(Oc2cc(Cl)cc(Cl)c2F)c(S(=O)(=O)N2CCNCC2)c1 [Example 1-77] |
| < 1000 | Cc1cc(Oc2ccc([N+](=O)[O-])cc2S(=O)(=O)N2CCNCC2)cc(C)c1Cl [Example 1-79] |
| < 1000 | Cc1ccc(Cl)c(Oc2ccc([N+](=O)[O-])cc2S(=O)(=O)N2CCNCC2)c1 [Example 1-80] |
| > 10000 | Cc1cc(Oc2ccc([N+](=O)[O-])cc2S(=O)(=O)N2CCNCC2)c(C(C)C)cc1Cl [Example 1-81] |
| < 1000 | O=[N+]([O-])c1ccc(Oc2cc(Cl)ccc2Cl)c(S(=O)(=O)N2CCNCC2)c1 [Example 1-84] |
| < 1000 | Cl.O=[N+]([O-])c1ccc(Oc2cc(Cl)cc(Cl)c2Cl)c(S(=O)(=O)N2CCNCC2)c1 [Example 1-86] |
| < 1000 | O=C(O)C1CNCCN1S(=O)(=O)c1cc([N+](=O)[O-])ccc1Oc1cc(Cl)cc(Cl)c1 (stereo not drawn) [Example 1-87] |
| < 1000 | Cc1cc(C)cc(Oc2ccc([N+](=O)[O-])cc2S(=O)(=O)N2CCN(CCO)CC2)c1 [Example 1-88] |
| < 1000 | Cc1cc(C)cc(Oc2ccc([N+](=O)[O-])cc2S(=O)(=O)N2CCN(CCOCCO)CC2)c1 [Example 1-89] |
| < 1000 | Cc1cc(C)cc(Oc2ccc([N+](=O)[O-])cc2S(=O)(=O)N2CCCNCC2)c1 [Example 1-90] |
| < 1000 | Cl.O=[N+]([O-])c1ccc(Oc2cc(Cl)cc(Cl)c2)c(S(=O)(=O)N2CCCNCC2)c1 [Example 1-91] |
| < 1000 | Cc1cc(C)cc(Oc2ccc([N+](=O)[O-])cc2S(=O)(=O)N2CC(C)NC(C)C2)c1 (stereo not drawn) [Example 1-92] |
| < 1000 | CC1CN(S(=O)(=O)c2cc([N+](=O)[O-])ccc2Oc2cc(Cl)cc(Cl)c2)CC(C)N1 (stereo not drawn) [Example 1-93] |
| < 1000 | Cl.N[C@H]1CCN(S(=O)(=O)c2cc([N+](=O)[O-])ccc2Oc2cc(Cl)cc(Cl)c2)C1 [Example 1-100] |
| < 1000 | Cc1cc(C)cc(Sc2ccc([N+](=O)[O-])cc2S(=O)(=O)N2CCNCC2)c1 [Example 2-1, 1-({2-[(3,5-dimethylphenyl)-sulfanyl]-5-nitrophenyl}sulfonyl)piperazine hydrochloride] |
| > 10000 | Cc1cc(C)cc(Oc2ccc(N)cc2S(=O)(=O)N2CCN(C(=O)OC(C)(C)C)CC2)c1 [Example 5-1, tert-butyl 4-{[5-amino-2-(3,5-dimethyl-phenoxy)phenyl]sulfonyl}-1-piperazinecarboxylate] |
| < 1000 | Cc1cc(C)cc(Oc2ccc(Cl)cc2S(=O)(=O)N2CCNCC2)c1 [Example 5-2, 1-{[5-chloro-2-(3,5-dimethylphenoxy)phenyl]sulfonyl}piperazine hydrochloride] |
| > 10000 | Cc1cc(C)cc(Oc2ccc(O)cc2S(=O)(=O)N2CCNCC2)c1 [Example 6-1, 4-(3,5-dimethylphenoxy)-3-(1-piperazinylsulfonyl)phenol hydrochloride] |
| 1000 to 10000 | COc1ccc(Oc2cc(C)cc(C)c2)c(S(=O)(=O)N2CCNCC2)c1 [Example 6-2, hydrochloride] |
| > 10000 | Cc1cc(C)cc(Oc2ccc(NC(=O)Cc3ccccc3)cc2S(=O)(=O)N2CCNCC2)c1 [Example 7-1, N-[4-(3,5-dimethylphenoxy)-3-(1-piperazinylsulfonyl)phenyl]-2-phenylacetamide] |
| < 1000 | Cc1cc(C)cc(Oc2ccc(Br)cc2S(=O)(=O)N2CCNCC2)c1 [Example 8-1, 1-{[5-bromo-2-(3,5-dimethylphenoxy)phenyl]sulfonyl}piperazine hydrochloride] |
| < 1000 | Cc1cc(C)cc(Oc2ccc(C#N)cc2S(=O)(=O)N2CCNCC2)c1 [Example 9-1, 4-(3,5-dimethylphenoxy)-3-(1-piperazinylsulfonyl)benzonitrile hydrochloride] |
| 1000 to 10000 | CN(C)C(=O)c1ccc(Oc2cc(Cl)cc(Cl)c2)c(S(=O)(=O)N2CCNCC2)c1 [Example 10-1, 4-(3,5-dichlorophenoxy)-N,N-dimethyl-3-(1-piperazinylsulfonyl)benzamide hydrochloride] |
| > 10000 | Cc1cc(C)cc(Oc2cc3cc[nH]c3cc2S(=O)(=O)N2CCNCC2)c1 [Example 11-1, 5-(3,5-dimethylphenoxy)-6-(1-piperazinylsulfonyl)-1H-indole trifluoroacetate] |
| < 1000 | N#Cc1ccc(Nc2cc(Cl)cc(Cl)c2)c(S(=O)(=O)N2CCNCC2)c1 [Example 20-1, 4-[(3,5-dichlorophenyl)amino]-3-(1-piperazinylsulfonyl)benzonitrile hydrochloride] |
| < 1000 | Cc1cc(C)cc(Oc2ccncc2S(=O)(=O)N2CCNCC2)c1 [Example 25-1, 1-{[4-(3,5-dimethylphenoxy)-3-pyridinyl]sulfonyl}piperazine hydrochloride] |
| < 1000 | CN(CCN1CCCCC1)S(=O)(=O)c1cc([N+](=O)[O-])ccc1Sc1cc(Cl)cc(Cl)c1 [Example 26-1, 2-[(3,5-dichlorophenyl)sulfanyl]-N-methyl-5-nitro-N-[2-(1-piperidinyl)ethyl]benzenesulfonamide] |
